According to PubChem BioAssay AID1845206 (Molecular Pharmacology Branch, DTP, NCI, 2023):

System: NCI-H1618 multicellular tumor spheroid viability
Test: Anticancer human tumor NCI-H1618 cell line growth inhibition;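 also: spheroids exposed to agents for 7 days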
Settings: for IC50: curve of first compound; for viability, T/C: stronger effect = lower value
In short: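 Complex tumor spheroids combined malignant cells with endothelial cells and mesenchymal stem cells. DNA-damaging drugs and DNA repair inhibitors were tested alone and in combination, at half-log dilutions down from clinical Cmax (top 10 microM if Cmax unknown), 0.25% DMSO final.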

[1] = second compound 30 pM, first compound 0.0316 µM
[2] = second compound 30 pM, first compound 0.1 µM
[3] = second compound 30 pM, first compound 0.316 µM
[4] = second compound 30 pM, first compound 1 µM
[5] = second compound 30 pM, first compound 3.16 µM
[6] = second compound 30 pM, first compound 10 µM
[7] = second compound 94.9 pM, first compound 0.0316 µM
[8] = second compound 94.9 pM, first compound 0.1 µM
[9] = second compound 94.9 pM, first compound 0.316 µM
[10] = second compound 94.9 pM, first compound 1 µM
[11] = second compound 94.9 pM, first compound 3.16 µM
[12] = second compound 94.9 pM, first compound 10 µM
[13] = second compound 0.0003 µM, first compound 0.0316 µM
[14] = second compound 0.0003 µM, first compound 0.1 µM
[15] = second compound 0.0003 µM, first compound 0.316 µM
[16] = second compound 0.0003 µM, first compound 1 µM
[17] = second compound 0.0003 µM, first compound 3.16 µM
[18] = second compound 0.0003 µM, first compound 10 µM
[19] = second compound 0.000949 µM, first compound 0.0316 µM
[20] = second compound 0.000949 µM, first compound 0.1 µM
[21] = second compound 0.000949 µM, first compound 0.316 µM
[22] = second compound 0.000949 µM, first compound 1 µM
[23] = second compound 0.000949 µM, first compound 3.16 µM
[24] = second compound 0.000949 µM, first compound 10 µM
[25] = second compound 0.003 µM, first compound 0.0316 µM
[26] = second compound 0.003 µM, first compound 0.1 µM
[27] = second compound 0.003 µM, first compound 0.316 µM
[28] = second compound 0.003 µM, first compound 1 µM
[29] = second compound 0.003 µM, first compound 3.16 µM
[30] = second compound 0.003 µM, first compound 10 µM

Structure (SMILES)	IC50 (second compound 30 pM)	IC50 (second compound 94.9 pM)	IC50 (second compound 0.0003 µM)	IC50 (second compound 0.000949 µM)	IC50 (second compound 0.003 µM)	viability, T/C [1]	viability, T/C [2]	viability, T/C [3]	viability, T/C [4]	viability, T/C [5]	viability, T/C [6]	viability, T/C [7]	viability, T/C [8]	viability, T/C [9]	viability, T/C [10]	viability, T/C [11]	viability, T/C [12]	viability, T/C [13]	viability, T/C [14]	viability, T/C [15]	further results
CC(C)n1c(=O)n(C)c2cnc3cc(F)c(-c4ccc(OCCCN5CCCCC5)nc4)cc3c21 + COc1cc2c(cc1O)CCNC21CSC2c3c(OC(C)=O)c(C)c4c(c3C(COC1=O)N1C(O)C3Cc5cc(C)c(OC)c(O)c5C(C21)N3C)OCO4	7.23 µM	< 0.0316 µM	< 0.0316 µM	< 0.0316 µM	< 0.0316 µM	98.6%	66.3%	83%	103%	70%	42.2%	46.2%	13.4%	36.4%	42.7%	34.5%	15.9%	3.13%	2.8%	4.96%	viability, T/C [16]: 7.62%; viability, T/C [17]: 9.67%; viability, T/C [18]: 7.88%; viability, T/C [19]: 5.33%; viability, T/C [20]: 5.23%; viability, T/C [21]: 5.71%; viability, T/C [22]: 5.14%; viability, T/C [23]: 5.57%; viability, T/C [24]: 8.28%; viability, T/C [25]: 5.09%; viability, T/C [26]: 4.6%; viability, T/C [27]: 4.56%; viability, T/C [28]: 5.67%; viability, T/C [29]: 3.66%; viability, T/C [30]: 5.04%
COc1ccc([C@@H](O)c2cc(-c3ncnc4cc(N5CCOCC5)ccc34)c(F)cc2Cl)nn1 + COc1cc2c(cc1O)CCNC21CSC2c3c(OC(C)=O)c(C)c4c(c3C(COC1=O)N1C(O)C3Cc5cc(C)c(OC)c(O)c5C(C21)N3C)OCO4	3.72 µM	1.45 µM	< 0.0316 µM	< 0.0316 µM	< 0.0316 µM	94.5%	103%	104%	97.6%	55.8%	15%	75.4%	82.7%	55.5%	65.7%	32.6%	3.93%	14.8%	29.8%	13.9%	viability, T/C [16]: 3.02%; viability, T/C [17]: 3.64%; viability, T/C [18]: 0.49%; viability, T/C [19]: 4.34%; viability, T/C [20]: 4.36%; viability, T/C [21]: 3.33%; viability, T/C [22]: 3.78%; viability, T/C [23]: 5.45%; viability, T/C [24]: 0.45%; viability, T/C [25]: 2.98%; viability, T/C [26]: 4.77%; viability, T/C [27]: 4.99%; viability, T/C [28]: 3.43%; viability, T/C [29]: 2.67%; viability, T/C [30]: 1.04%
